According to patent EP1370276B1, “INTERCELLULAR COMMUNICATION FACILITATING COMPOUNDS AND THEIR MEDICAL USE” (Zealand Pharma A/S, priority 2001, dated 2002):
Where a SMILES comes first, the peptide text is derived from it. [ ]: non-standard residue; d: D form. The star is where a group is joined. dTyr(3,5-I2) = N[C@H](Cc1cc(I)c(O)c(I)c1)C(=O)O; Dnp = O=[N+]([O-])c1ccc(*)c([N+](=O)[O-])c1; X1 = [N-]=[N+]=Nc1cc(O)c(C(=O)*)cc1I; Hyp = O=C(O)[C@@H]1C[C@@H](O)CN1; dHyp = O=C(O)[C@H]1C[C@H](O)CN1; Sar = CNCC(=O)O

Experiments:
[1] = system: calcium-induced arrythmias; test: Calcium-induced arrhythmia model in mice (time to 2nd degree AV-block); assay type: in vivo; set-up: CaCl2 mice Score: scale not given here; settings: for CaCl2 mice Score / CaCl2 mice In vivo, %: calcium chloride induced arrythmia model; for CaCl2 mice Score: no key for the score; for In vivo activity: maximal effect, increase in time until 2nd degree AV-block relative to vehicle, i.v.
Description: The antiarrhythmic effects of compounds of this invention were tested in an in vivo model of calcium-induced arrythmias according to the model of Lynch et al. ^[37]. […]. Commercial solutions of hypnorm and midazolam were diluted 1:1 in distilled water and one part diluted Hypnorm® is mixed with one part diluted midazolam.
The anaesthesia was induced by s.c. administration in a dose of […]. An i.v. cannula was inserted into the tail vein. The lead II ECG signal was recorded continuously by positioning of a stainless steel ECG electrodes on the right forelimb and on the left hind limb. The ground electrode was placed on the right hind limb. The signal was amplified (x 5.000-10.000) and filtered (0.1-150 Hz) via a Hugo Sachs Electronic model 689 ECG module. The analogue signal was digitised via a 12 bit data acquisition board (Data Translation model DT321) and sampled at 1000 Hz using the Notocord HEM 3.1 software for Windows NT. After a 10-min equilibration period, the test sample of drug was injected into the tail vein. Mice pre-treated with vehicle were tested as a measure of the control level in untreated animals. The injection volume was 100 µl in all experiments. Infusion of CaCl2 (30 mg/ml, 0.1 ml/min ≈ 100 mg/kg/min (calciumchlorid-2-hydrat, Riedel-de Haën, Germany)) was started 3 min after i.v. administration of drug or vehicle. The time lag to onset of 2nd degree AV-block was determined as the time from the start of CaCl2 infusion until the first arrhythmic event occured. An event of 2nd degree AV-block was defined as intermittent failure of the AV conduction characterised by a P-wave without the concomitant QRS complex.
Responses were expressed relative to the time until 2nd degree AV-block occurred in vehicle treated mice.

CHO cells = test: In situ binding of [125I]AAP10 on intact CHO cells; settings: overnight at 4° C
Description: CHO cells are seeded in 24-multi well dishes in a density of 7,900 cells/cm^2 (∼ 15,000 cells/well) and grown for 3 Days In Vitro (DIV) in 1 ml/well of F-12K Nutrient Mixture supplemented with 10% Foetal Calf Serum (FCS) and 1000 units penicillin/1000 µg streptomycin (pen/strep) in an atmosphere of 5% CO2 and 100% humidity at 37° C. The cell density has at that time increased to 295,000 cells/cm^2 (152 pgprot/cell ∼ 85 µgprot/well).
On the day of analysis cells are removed from the incubator and each well is washed twice with, depending on the experiment, either 2 ml pre-warmed (37 °C) or ice-cold (0 °C) D-PBS to remove serum. It is important to keep the period to a minimum during which cells are left without physiological solutions to avoid that they dry out during washing procedures. The cold washed cells are used directly for binding assays while the warm washed cells are used for experiments with glucose and oxygen deprivation.
The in situ binding is performed by a modified protocol based on the description by Koenig. […] Cells incubate overnight at 4° C to reach equilibrium. Each well, one at the time, is then rinsed rapidly with 2 x 1 ml D-PBS and left to dry.
0.25 ml of 0.5 % Triton-X-100 (v/v) is added to each well and cells left for at least 1 h to solubilize. The extract is transferred to counting vials, the wells rinsed with 0.25 ml water and the rinse extract added to the corresponding vials. The vials are counted in a γ-counter. Table 3. In situ binding, IC50 (nM).

[2] = target: murine heart tissue preparations; test: Displacement of [125I]AAP10 from murine heart tissue preparations; assay type: binding, mice; settings: displacement of 0.8 nM [125I]AAP10, filtrate; read-out: Filtrate IC50
Description: Hearts are excised from mice (Balb/cJ, 20 g), rinsed twice in ice-cold (0°C) 0.32 M sucrose and homogenized on ice in 10 volumes of sucrose with an Ultra Turrax homogeniser (1000 rpm) for 2 minutes. The homogenate is centrifuged at 1000 gmea" for 10 minutes at 4° C and the supernatant collected and filtrated through 4 layers of gauze. The filtrate is then centrifuged at 50,000 gmean for 45 min at 4° C and the pellet resuspended in 10 volorg. wet weight ice-cold distilled water and incubated for 60 min at 0° C and re-centrifuged at 50,000 gmean at 45 min at 4° C. The resulting pellet is resuspended in 2 vol org. wet weight of PBS (Phosphate Buffered Saline) and stored at - 80° C until use.

[3] = system: cAMP formation in CHO cells; test: Inhibition of forskoline stimulated cAMP formation in CHO cells; assay type: cell-based; settings: 10 µM forskoline, 20 min, cells pre-treated with glucose and oxygen deprivation
Description: CHO cells are seeded in 96-well microtiter plates in a density of 6,000 cells/cm^2 (∼ 2,000 cells/well) and grown for 4 days in vitro in 200 µl/well of growth media as described in the previous section.
On the day of analysis cells are removed from the incubator and washed twice with 200 µl pre-warmed (37°C) D-PBS (pH 7.2) to remove serum. Cells are incubated for 10 min in glucose free D-PBS and an N2-atmosphere as described in the previous section.
CHO cells are incubated at 37° C in D-PBS (pH 7.2) containing 6 mM glucose, 2.0 mM IBMX (phospodiesterase blocker), 10 µM forskoline (stimulates cAMP formation) and increasing concentrations of test peptide. The reaction is stopped after 20 min by addition of 20 µl 0.5 M HCl and left for at least 20 min at room temperature.
The content of cAMP is analysed by mixing 20 µl of the acid cell extract into FlashPlate™ wells (NEN assay kit SMP001) containing 180 µl [^12SI]cAMP tracer solution. FlashPlates™ are incubated overnight at 4° C and plate bound radioactivity counted in TopCount (Packard Instrument). Data are calculated as described in the previous section.

For “3-(4-hyd roxyphenyl)propionyl-Pro-Hyp-Gly-Ala-Gly-OH [HP5, reference compound]”, the “CaCl2 mice Score” value [1] was 2 and the In vivo activity [1] was “++ (++ refers to 30-50% increase in time until arrhythmia)”.
With `CC(=O)NCC(=O)N[C@@H](CC(=O)O)C(=O)N[C@@H](CC(N)=O)C(=O)N[C@@H](Cc1ccc(O)cc1)C(N)=O` [Ac-G-D-N-Y-NH2] (Ac-GDNY-NH2) the “CaCl2 mice Score” value [1] was 1.
In the case of `CC(=O)N[C@@H](Cc1ccc(O)cc1)C(=O)N[C@@H](CC(=O)O)C(=O)N[C@@H](CC(N)=O)C(=O)NCC(N)=O` [Ac-Y-D-N-G-NH2] (Ac-YDNG-NH2), the “CaCl2 mice Score” value [1] is reported as 1.
For `CC(=O)N[C@@H](Cc1ccc(O)cc1)C(=O)N[C@H](CC(N)=O)C(=O)NCC(=O)O` [Ac-Y-DN-G-OH] (Ac-Tyr-[dN]-Gly-OH), the “CaCl2 mice Score” value [1] was 2.
For `CC(=O)N[C@@H](Cc1ccc(O)cc1)C(=O)N1CCC[C@H]1C(=O)N1C[C@H](O)C[C@H]1C(=O)NCC(=O)N[C@@H](C)C(=O)NCC(=O)O` [Compound 1, Ac-Tyr-Pro-4Hyp-Gly-Ala-Gly-OH] (Ac-YP[Hyp]GAG-OH), the “CaCl2 mice Score” value [1] was 1.
`CC(=O)N[C@H](Cc1cc(I)c(O)c(I)c1)C(=O)N1CCC[C@@H]1C(=O)N1C[C@@H](O)C[C@@H]1C(=O)NCC(=O)N[C@H](C)C(=O)NCC(N)=O` [Compound 24] (Ac-[dTyr(3,5-I2)][dP][dHyp]G[dA]G-NH2) gave an IC50 (CHO cells) of 65 nM.
Compound `C[C@H](NC(=O)CNC(=O)[C@@H]1C[C@@H](O)CN1C(=O)[C@@H]1CCCN1C(=O)c1cc(I)c(N=[N+]=[N-])cc1O)C(=O)NCC(N)=O` [Compound 32] (X1-P[Hyp]GAG-NH2) has an IC50 (CHO cells) of 0.5 nM.
In the case of `C[C@H](NC(=O)CN)C(=O)NCC(=O)N1C[C@H](O)C[C@H]1C(=O)N1CCC[C@H]1C(=O)N[C@@H](Cc1ccc(O)cc1)C(=O)N[C@@H](CC(N)=O)C(N)=O` [H-AAP-10-Asn-NH2] (H-GAG[Hyp]PYN-NH2), the “CaCl2 mice Score” value [1] is reported as 2.
With `NCC(=O)N[C@H](CC(N)=O)C(=O)N[C@@H](Cc1ccc(O)cc1)C(N)=O` [H-G-DN-Y-NH2] (H-Gly-[dN]-Tyr-NH2) the “CaCl2 mice Score” value [1] was 2.
In the case of `C[C@H](NC(=O)CN)C(=O)N(C)CC(=O)N1C[C@H](O)C[C@H]1C(=O)N1CCC[C@H]1C(=O)N[C@@H](Cc1ccc(O)cc1)C(N)=O` [H-GA-Sar-Hyp-PY-NH2] (H-GA[Sar][Hyp]PY-NH2), the “CaCl2 mice In vivo, %” value [1] is reported as 46 +/- 11% and the “CaCl2 mice Score” value [1] is reported as 2.
For `C[C@H](NC(=O)CN)C(=O)N[C@@H](CC(N)=O)C(=O)N[C@@H](Cc1ccc(O)cc1)C(N)=O` [H-GANY-NH2] (H-GANY-NH2), the “CaCl2 mice Score” value [1] was 1.
With `NCC(=O)NCC(=O)N[C@@H](Cc1ccc(O)cc1)C(N)=O` [H-GGY-NH2] (H-Gly-Gly-Tyr-NH2) the “CaCl2 mice Score” value [1] was 2.
With `NCC(=O)N[C@@H](CCCCNc1ccc([N+](=O)[O-])cc1[N+](=O)[O-])C(=O)N[C@@H](Cc1ccc(O)cc1)C(N)=O` [H-GK(DNP)Y-NH2] (H-Gly-Lys(Dnp)-Tyr-NH2) the “CaCl2 mice Score” value [1] was 1.
`C[C@H](NC(=O)CNC(=O)[C@H](CC(N)=O)NC(=O)[C@H](Cc1ccc(O)cc1)NC(=O)[C@@H]1CCCN1C(=O)[C@@H]1C[C@@H](O)CN1)C(=O)NCC(N)=O` [H-HypPYNGAG-NH2] (H-[Hyp]PYNGAG-NH2) was tested, and the “CaCl2 mice In vivo, %” value [1] was 34 +/- 10% and the “CaCl2 mice Score” value [1] was 2.
For `CNCC(=O)N[C@@H](C)C(=O)N(C)CC(=O)N1C[C@H](O)C[C@H]1C(=O)N1CCC[C@H]1C(=O)N[C@@H](Cc1ccc(O)cc1)C(N)=O` [H-Sar-A-Sar-Hyp-PY-NH2] (H-[Sar]A[Sar][Hyp]PY-NH2), the “CaCl2 mice In vivo, %” value [1] was 24 +/- 7% and the “CaCl2 mice Score” value [1] was 1.
In the case of `NC(=O)C[C@@H](NC(=O)[C@@H](N)Cc1ccc(O)cc1)C(=O)NCC(=O)O` [H-Y-DN-G-OH] (H-Tyr-[dN]-Gly-OH), the “CaCl2 mice Score” value [1] is reported as 2.
In the case of `NC(=O)CNC(=O)[C@H](CC(N)=O)NC(=O)[C@@H](N)Cc1ccc(O)cc1` [H-YNG-NH2] (H-Tyr-Asn-Gly-NH2), the “CaCl2 mice Score” value [1] is reported as 2.
For `C[C@H](NC(=O)CN)C(=O)NCC(=O)N1CCC[C@@H]1C(=O)N[C@@H](C)C(=O)N[C@@H](Cc1ccc(O)cc1)C(N)=O` [H-[D-Pro^4, Ala^5]AAP-10-NH2] (H-GAG[dP]AY-NH2), the “CaCl2 mice In vivo, %” value [1] was 29 +/- 12% and the “CaCl2 mice Score” value [1] was 1.
With AcGNY the “CaCl2 mice In vivo, %” value [1] was 46 +/- 9% and the “CaCl2 mice Score” value [1] was 2.
CF3C(O)-AAP10-NH2 was tested, and the “CaCl2 mice Score” value [1] was 3.
In the case of Cyclo(retro-AAP-10-Asn), the “CaCl2 mice In vivo, %” value [1] is reported as 59 +/- 9% and the “CaCl2 mice Score” value [1] is reported as 2.
In the case of GNY, the “CaCl2 mice In vivo, %” value [1] is reported as 58 +/- 10% and the “CaCl2 mice Score” value [1] is reported as 2.
H-AAP-10-K6-OH was tested, and the “CaCl2 mice In vivo, %” value [1] was 64 +/- 10% and the “CaCl2 mice Score” value [1] was 3.
In the case of H-DY-DN-G-NH2, the “CaCl2 mice Score” value [1] is reported as 1.
In the case of H-GAG-DHyp-DProY-NH2, the “CaCl2 mice In vivo, %” value [1] is reported as 49 +/- 6% and the “CaCl2 mice Score” value [1] is reported as 2.
With H-GAG-DHypAY-NH2 the “CaCl2 mice In vivo, %” value [1] was 29 +/- 9% and the “CaCl2 mice Score” value [1] was 1.
In the case of H-GAGGPY-NH2 [H-GAGGPY-NH2], the “CaCl2 mice Score” value [1] is reported as 2.
In the case of “H-GP[Hyp]GAG-OH [AAP, reference compound]”, the IC50 (CHO cells) is reported as 0.8 nM, the “CaCl2 mice Score” value [1] is reported as 2 and the In vivo activity [1] is reported as “++ (++ refers to 30-50% increase in time until arrhythmia)”. It also gave an IC50 [2] of 1.2 nM and an EC50 [3] of 53 nM.
H-[D-Hyp^4]AAP-10-NH2 was tested, and the “CaCl2 mice In vivo, %” value [1] was 28 +/- 10% and the “CaCl2 mice Score” value [1] was 1.
With HPP-PHypGAGKKKKKK-NH2 the “CaCl2 mice In vivo, %” value [1] was 21 +/- 17% and the “CaCl2 mice Score” value [1] was 1.
With HPP-PHypGAGKKKKKK-OH the “CaCl2 mice In vivo, %” value [1] was 80 +/- 17% and the “CaCl2 mice Score” value [1] was 3.
[Pro^4]AAP10-NH2 was tested, and the “CaCl2 mice Score” value [1] was 3.
With des-Hyp^4-[Asn^5]AAP-10-NH2 the “CaCl2 mice In vivo, %” value [1] was 53 +/- 15% and the “CaCl2 mice Score” value [1] was 2.
